Results published in ChEMBL document CHEMBL5042483, “Discovery and Mechanism of SARS-CoV-2 Main Protease Inhibitors” (J Med Chem, 2022).
Active and inactive are the calls of the source. The calls are words filed in the database; no cut-off is given here.

Legend:
[1] = Inhibition of GST-tagged SARS-CoV-2 main protease expressed in Escherichia coli BL21 competent cells using DABCYL-Val-Asn-Ser-Thr-Leu-Gln-Ser-Gly-Leu-Arg-Lys-EDANS as substrate measured every 10 mins for 1 hr by FRET assay; parameters: species or system Severe acute respiratory syndrome coronavirus 2
SARS-CoV-2 [2] = type: functional, organism-based, Vero E6; details: Severe acute respiratory syndrome coronavirus 2, USA_WA1/2020, Vero C1008
[3] = Inhibition of SARS-CoV-2 main protease expressed in Escherichia coli using MCA-AVLQSGFR-Lys(Dnp)-Lys-NH2 as substrate by FRET assay; parameters: species or system Severe acute respiratory syndrome coronavirus 2
SARS-CoV-2 [4] = assay: microbe, parasite or virus in culture; details: Severe acute respiratory syndrome coronavirus 2, Vero C1008, 24 h
SARS-CoV-2 [5] = assay: Antiviral activity against SARS-CoV-2 USA_WA1/2020 infected in human Calu-3 cells assessed as reduction in viral RNA replication pretreated for 1 hr with compound followed by viral infection for 1.5 hrs then followed by washout the cells and re-incubated with compounds for 24 hrs by qRT-PCR method; type: functional, organism-based; details: Severe acute respiratory syndrome coronavirus 2, USA_WA1/2020, Calu-3
[6] = Distribution coefficient, logD of compound at pH 7.4 by shake flask method; type: physicochemical; details: octanol/water
[7] = system: Severe acute respiratory syndrome coronavirus 2; assay: (§1) Reversible covalent inhibition of SARS-CoV-2 main protease expressed in Escherichia coli BL21 competent cells using DABCYL-Val-Asn-Ser-Thr-Leu-Gln-Ser-Gly-Leu-Arg-Lys-EDANS as fluorogenic substrate assessed as reduction in product formation at 1 to 10 uM preincubated for 30 mins in presence of DTT by dilution assay; details: dose 1-10 µM
[8] = system: Severe acute respiratory syndrome coronavirus 2; assay: as §1, with “1” for “1 to 10”, “incubated” for “preincubated”, “mins” for “mins in presence of DTT”, “assay relative to control” for “assay”
[9] = system: Severe acute respiratory syndrome coronavirus 2; assay: as §1, with “at” for “at 1 to”, “incubated” for “preincubated”, “mins” for “mins in presence of DTT”, “assay relative to control” for “assay”
[10] = system: Severe acute respiratory syndrome coronavirus 2; assay: as §1, with “at” for “at 1 to”, “absence” for “presence”, “assay relative to control” for “assay”
[11] = system: Severe acute respiratory syndrome coronavirus 2; assay: Competitive inhibition of SARS-CoV-2 main protease assessed as inhibitor concentration dependent Km with constant Vmax at 0.5 to 10 uM using varying concentrations of DABCYL-KTSAVLQ1SGFRKM-E(EDANS)-NH2 as substrate by double reciprocal plot analysis; details: dose 0.5-10 µM
[12] = system: Severe acute respiratory syndrome coronavirus 2; assay: as §1, with “at” for “at 1 to”, “assay relative to control” for “assay”
[13] = system: Severe acute respiratory syndrome coronavirus 2; assay: as §1, with “1” for “1 to 10”, “absence” for “presence”, “assay relative to control” for “assay”
[14] = system: Severe acute respiratory syndrome coronavirus 2; assay: as §1, with “1” for “1 to 10”, “assay relative to control” for “assay”
[15] = Toxicity in human iPSC derived lung organoids infected with SARS-CoV-2 USA_WA1/2020 measured after 24 hrs

| SMILES | IC50 [1] [µM] | EC50 (SARS-CoV-2 [2]) [µM] | further results |
| --- | --- | --- | --- |
| O=c1c2ccccc2[se]n1Cc1ccc(C(F)(F)F)cc1 | > 10 | 11.2 |  |
| O=C[C@H](C[C@@H]1CCNC1=O)NC(=O)[C@H](Cc1cccc(F)c1)NC(=O)c1cc2ccccc2[nH]1 |  |  | IC50 [3]: 0.04 µM; EC50 (SARS-CoV-2 [4]): 0.72 µM |
| CCC(CC)COC(=O)[C@H](C)NP(=O)(OC[C@H]1O[C@@](C#N)(c2ccc3c(N)ncnn23)[C@H](O)[C@@H]1O)Oc1ccccc1 (single isomer, unassigned) |  | 1.8 | EC50 (SARS-CoV-2 [5]): 0.8 µM |
| O=c1c2ccccc2[se]n1-c1cccc(Cl)c1 | 0.68 | 17.4 | logD [6]: 1.53; inhibition [7]: Active |
| COc1ccc(Cn2[se]c3ccccc3c2=O)c(OC)c1 | 0.61 | 26.5 | logD [6]: 0.85; inhibition [7]: Active |
| CCCCCn1[se]c2ccccc2c1=O | > 10 | > 20 |  |
| O=c1c2ccccc2[se]n1-c1ccccc1 [EBSELEN] |  | > 20 | logD [6]: 0.92; EC50 (SARS-CoV-2 [5]): 5 µM; inhibition [8]: 65%; inhibition [9]: 89%; inhibition [10]: 91%; inhibition [11]: Active |
| CCc1ccc(-n2[se]c3ccccc3c2=O)cc1 | 6.18 | 6.5 | logD [6]: 2.87; EC50 (SARS-CoV-2 [5]): 8.8 µM |
| O=c1c2ccccc2[se]n1-c1ccc(C(F)(F)F)cc1 | 0.9 | 11.2 | logD [6]: 3.19; EC50 (SARS-CoV-2 [5]): 2.8 µM; inhibition [9]: 86%; inhibition [10]: 48%; inhibition [12]: 43%; inhibition [11]: Active; inhibition [13]: 44% |
| CCCCCCCn1[se]c2ccccc2c1=O | 5.56 | 17.3 |  |
| Cc1ccccc1-n1[se]c2ccccc2c1=O | 7.43 | 20.7 |  |
| COc1cc(F)ccc1-n1[se]c2ccccc2c1=O | 1.8 | > 20 |  |
| O=c1c2ccccc2[se]n1-c1ccc(F)cc1 | 2.78 | 16.7 |  |
| CSc1ccccc1-n1[se]c2ccccc2c1=O | > 10 | > 20 |  |
| O=c1c2ccccc2[se]n1-c1ccc(Br)cc1 | 2.77 | 5.2 | logD [6]: 1.46; EC50 (SARS-CoV-2 [5]): 15.7 µM |
| COc1ccc2c(=O)n(-c3ccccc3)[se]c2c1 | 6.4 | 11.2 |  |

| SMILES | IC50 [1] [µM] | EC50 (SARS-CoV-2 [2]) [µM] | further results |
| --- | --- | --- | --- |
| O=c1c2ccccc2[se]n1Cc1ccc(F)cc1 | 1 | > 20 | inhibition [14]: 53% |
| O=c1c2ccccc2[se]n1-c1ccc(Cl)cc1OC(F)(F)F | > 10 | > 20 |  |
| Cc1ccc(-n2[se]c3ccccc3c2=O)cc1 | 2.29 | 15.4 |  |
| CCCCCCCCn1[se]c2ccccc2c1=O | 2.69 | > 20 |  |
| O=c1c2ccccc2[se]n1-c1cc(Cl)cc(Cl)c1 | 0.64 | 18.2 | logD [6]: 1.67; inhibition [7]: Active |
| O=c1c2ccccc2[se]n1-c1c(F)cccc1F | 2.09 | > 20 |  |
| COc1ccc(F)cc1-n1[se]c2ccccc2c1=O | 3.3 | > 20 |  |
| O=c1c2ccccc2[se]n1-c1ccccc1F | > 10 | > 20 |  |
| O=c1c2ccccc2[se]n1-c1ccc(F)cc1C(F)(F)F | > 10 | > 20 |  |
| Cc1ccc(-n2[se]c3ccccc3c2=O)cc1C | > 10 | 12.2 |  |
| O=c1c2ccccc2[se]n1-c1cccc(C(F)(F)F)c1 | 2.77 | 0.8 | logD [6]: 3.18; EC50 (SARS-CoV-2 [5]): 1.3 µM; Activity [15]: Non-Toxic |
| N#Cc1cccc(-n2[se]c3ccccc3c2=O)c1 | 0.38 | 2 | logD [6]: 1.45; inhibition [8]: 29%; inhibition [9]: 94%; inhibition [10]: 64% |
| COc1ccc(-n2[se]c3ccccc3c2=O)cc1 | 1.25 | 1.7 |  |
| COc1ccc(Cl)cc1-n1[se]c2ccccc2c1=O | > 10 | > 20 |  |
| COc1ccc(Cn2[se]c3ccccc3c2=O)cc1 | > 10 | > 20 |  |
| COc1cccc(-n2[se]c3ccccc3c2=O)c1 | > 10 | 15.1 |  |
